Source: PubChem BioAssay AID248 (DTP/NCI, 2004)
“And” between values parts separate entries of the source, which are not always exact repeats. Identical values can stand only once. Inconclusive results and toxic doses are left out.

System: L1210 leukemia ip in BDF1 mice, survival T/C
Experiment: NCI In Vivo Anticancer Drug Screen. Data for tumor model L1210 Leukemia (intraperitoneal) in B6D2F1 (BDF1) mice
Settings: endpoint: mean survival time, higher = longer survival
Procedure, shortened: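 Tumor was transplanted into mice, which were then dosed with test compound or vehicle alone. Survival was recorded for each group, and the treated figure was expressed relative to the control figure.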

[1] = dose: 50.0 mg/kg/injection, schedule: Q04DX002 (ip), vehicle: saline with Tween-80
[2] = dose: 100.0 mg/kg/injection, schedule: Q04DX002 (ip), vehicle: saline with Tween-80
[3] = dose: 200.0 mg/kg/injection, schedule: Q04DX002 (ip), vehicle: saline with Tween-80
[4] = dose: 400.0 mg/kg/injection, schedule: Q04DX002 (ip), vehicle: saline with Tween-80
[5] = dose: 100.0 mg/kg/injection, schedule: Q01DX009 (ip), vehicle: Klucel (hydroxypropylcellulose) (HPC)
[6] = dose: 100.0 mg/kg/injection, schedule: Q04DX003 (ip), vehicle: Klucel (hydroxypropylcellulose) (HPC)
[7] = dose: 200.0 mg/kg/injection, schedule: Q04DX003 (ip), vehicle: Klucel (hydroxypropylcellulose) (HPC)
[8] = dose: 400.0 mg/kg/injection, schedule: Q04DX003 (ip), vehicle: Klucel (hydroxypropylcellulose) (HPC)
[9] = dose: 50.0 mg/kg/injection, schedule: Q01DX009 (ip), vehicle: Klucel (hydroxypropylcellulose) (HPC)
[10] = dose: 100.0 mg/kg/injection, schedule: Q01DX001 (ip), vehicle: Klucel (hydroxypropylcellulose) (HPC)
[11] = dose: 200.0 mg/kg/injection, schedule: Q01DX001 (ip), vehicle: Klucel (hydroxypropylcellulose) (HPC)
[12] = dose: 100.0 mg/kg/injection, schedule: Q04DX003 (ip), vehicle: saline with Tween-80
[13] = dose: 200.0 mg/kg/injection, schedule: Q04DX003 (ip), vehicle: saline with Tween-80
[14] = dose: 400.0 mg/kg/injection, schedule: Q04DX003 (ip), vehicle: saline with Tween-80
[15] = dose: 100.0 mg/kg/injection, schedule: Q01DX009 (ip), vehicle: saline
[16] = dose: 100.0 mg/kg/injection, schedule: Q04DX003 (ip), vehicle: saline
[17] = dose: 12.5 mg/kg/injection, schedule: Q01DX009 (ip), vehicle: Klucel (hydroxypropylcellulose) (HPC)
[18] = dose: 25.0 mg/kg/injection, schedule: Q01DX009 (ip), vehicle: Klucel (hydroxypropylcellulose) (HPC)
[19] = dose: 50.0 mg/kg/injection, schedule: Q01DX001 (ip), vehicle: carboxymethylcellulose (CMC)
[20] = dose: 100.0 mg/kg/injection, schedule: Q01DX001 (ip), vehicle: carboxymethylcellulose (CMC)
[21] = dose: 200.0 mg/kg/injection, schedule: Q01DX001 (ip), vehicle: carboxymethylcellulose (CMC)
[22] = dose: 400.0 mg/kg/injection, schedule: Q01DX001 (ip), vehicle: carboxymethylcellulose (CMC)

SMILES: CC(C)(C)c1ccc(/C=[N+](\[O-])C(C)(C)C)c(C(C)(C)C)c1O
- T/C [1]: 102 % of control
- T/C [2]: 98 % of control
- T/C [3]: 102 % of control
- T/C [4]: 95 % of control

SMILES: CC(Cl)CN(CC(C)Cl)C(=O)OCC(NC(=O)OCc1ccccc1)C(=O)OCc1ccccc1 (configuration not stated)
- T/C [5]: 88 % of control
- T/C [6]: 87 % of control
- T/C [7]: 96 % of control
- T/C (dose: 400.0 mg/kg/injection, schedule: Q01DX009 (ip), vehicle: Klucel (hydroxypropylcellulose) (HPC)): 91 % of control
- T/C [8]: 91 % of control

SMILES: CC1(c2ccc(Cl)cc2)NC(=O)NC1=O (configuration not stated)
- T/C [9]: 97 % of control
- T/C [5]: 101 % of control
- T/C (dose: 200.0 mg/kg/injection, schedule: Q01DX009 (ip), vehicle: Klucel (hydroxypropylcellulose) (HPC)): 94 % of control

SMILES: CC(=O)Oc1c(F)c(F)c(F)c(F)c1F
- T/C (dose: 25.0 mg/kg/injection, schedule: Q04DX002 (ip), vehicle: saline with Tween-80): 87 % of control
- T/C [1]: 90 % of control
- T/C [2]: 93 % of control

SMILES: CCNc1nc(C)c2nc(C(=O)NCc3ccccc3)c(=O)n(CC)c2n1
- T/C [10]: 94 % of control
- T/C [11]: 94 % of control

SMILES: CC(=O)OC(C)C(C)C(=O)OCC12C3CC4(C)C(=CCC5C6(C)CCC(OC7OC(C(=O)O)C(OC8OC(CO)C(O)C(O)C8O)C(O)C7OC7OCC(O)C(O)C7O)C(C)(CO)C6CCC54C)C1CC(C)(C)C(O3)C2O (configuration not stated)
- T/C (dose: 5.0 mg/kg/injection, schedule: Q01DX001 (sc), vehicle: steriod suspending solution): 105 % of control
- T/C (dose: 50.0 mg/kg/injection, schedule: Q01DX001 (sc), vehicle: steriod suspending solution): 112 % of control

SMILES: COc1ccc(C(CC(=O)O)c2ccccc2)cc1 (configuration not stated)
- T/C (dose: 100.0 mg/kg/injection, schedule: Q01DX001 (ip), vehicle: saline): 94 % of control
- T/C (dose: 200.0 mg/kg/injection, schedule: Q01DX001 (ip), vehicle: saline): 93 % of control
- T/C (dose: 400.0 mg/kg/injection, schedule: Q01DX001 (ip), vehicle: saline): 100 % of control

SMILES: Cn1cnc([N+](=O)[O-])c1[Se]c1ncnc2c1ncn2C1OC(CO)C(O)C1O (configuration not stated)
- T/C (dose: 12.5 mg/kg/injection, schedule: Q01DX005 (ip), vehicle: saline): 104 % of control
- T/C (dose: 25.0 mg/kg/injection, schedule: Q01DX005 (ip), vehicle: saline): 98 % of control

SMILES: ClCc1ccccc1CCc1ccccc1CCl
- T/C [6]: 105 % of control
- T/C [7]: 94 % of control
- T/C [8]: 105 % of control

SMILES: CCOC(=O)C1C(=O)C(C(=O)Nc2ccccc2)C(=O)C(C(=O)OCC)C1c1ccc(OC(C)=O)cc1 (configuration not stated)
- T/C (dose: 50.0 mg/kg/injection, schedule: Q01DX001 (ip), vehicle: saline with Tween-80): 94 % of control
- T/C (dose: 100.0 mg/kg/injection, schedule: Q01DX001 (ip), vehicle: saline with Tween-80): 100 % of control
- T/C (dose: 200.0 mg/kg/injection, schedule: Q01DX001 (ip), vehicle: saline with Tween-80): 96 % of control

SMILES: CCOC(CN=CC1CCC=CO1)OCC (configuration not stated)
- T/C [12]: 91 % of control
- T/C [13]: 96 % of control
- T/C [14]: 95 % of control

SMILES: C=CCOCC(O)CN(C)C1CCCCC1 (configuration not stated)
- T/C (dose: 25.0 mg/kg/injection, schedule: Q01DX009 (ip), vehicle: saline): 97 % of control
- T/C (dose: 25.0 mg/kg/injection, schedule: Q04DX003 (ip), vehicle: saline): 106 % of control
- T/C (dose: 50.0 mg/kg/injection, schedule: Q01DX009 (ip), vehicle: saline): 98 % of control
- T/C (dose: 50.0 mg/kg/injection, schedule: Q04DX003 (ip), vehicle: saline): 103 % of control
- T/C [15]: 95 % of control
- T/C [16]: 100 % of control and 104 % of control

SMILES: O=c1[nH]c(CCCOc2ccccc2)nc2ccccc12
- T/C (dose: 50.0 mg/kg/injection, schedule: Q01DX001 (ip), vehicle: Klucel (hydroxypropylcellulose) (HPC)): 93 % of control
- T/C [10]: 104 % of control
- T/C [11]: 104 % of control

SMILES: CN=NNc1ccccc1
- T/C (dose: 12.0 mg/kg/injection, schedule: Q01DX009 (ip), vehicle: saline): 114 % of control
- T/C [17]: 100 % of control
- T/C (dose: 18.0 mg/kg/injection, schedule: Q01DX009 (ip), vehicle: saline): 118 % of control
- T/C [18]: 97 % of control
- T/C [9]: 102 % of control
- T/C (dose: 75.0 mg/kg/injection, schedule: Q04DX003 (ip), vehicle: saline with Tween-80): 113 % of control
- T/C [5]: 156 % of control
- T/C [12]: 121 % of control
- T/C (dose: 150.0 mg/kg/injection, schedule: Q04DX003 (ip), vehicle: saline with Tween-80): 164 % of control
- T/C (dose: 337.0 mg/kg/injection, schedule: Q04DX003 (ip), vehicle: saline with Tween-80): 153 % of control

SMILES: COc1ccccc1CN1CCCN(Cc2ccccc2OC)C1c1cccc(F)c1
- T/C [19]: 112 % of control
- T/C [20]: 108 % of control
- T/C [21]: 108 % of control
- T/C [22]: 102 % of control

SMILES: CC(O)C(O)C(O)C(/C=N\NC(N)=S)=N/NC(N)=S (configuration not stated)
- T/C [15]: 95 % of control
- T/C [16]: 104 % of control
- T/C (dose: 200.0 mg/kg/injection, schedule: Q01DX009 (ip), vehicle: saline): 89 % of control
- T/C (dose: 200.0 mg/kg/injection, schedule: Q04DX003 (ip), vehicle: saline): 105 % of control
- T/C (dose: 400.0 mg/kg/injection, schedule: Q01DX009 (ip), vehicle: saline): 90 % of control
- T/C (dose: 400.0 mg/kg/injection, schedule: Q04DX003 (ip), vehicle: saline): 94 % of control

SMILES: O=S(CCO)c1ccc(Cl)cc1 (configuration not stated)
- T/C [2]: 100 % of control and 109 % of control
- T/C [12]: 118 % of control
- T/C [3]: 102 % of control and 88 % of control
- T/C [13]: 106 % of control
- T/C [4]: 98 % of control and 103 % of control
- T/C [14]: 100 % of control

SMILES: CNc1nc2c(=O)[nH]c(N)nc2n1C1OC(CO)C(O)C1O (configuration not stated)
- T/C [19]: 101 % of control
- T/C [20]: 104 % of control
- T/C [21]: 95 % of control
- T/C [22]: 89 % of control

SMILES: O=[N+]([O-])c1ccc(Oc2cccc(C(F)(F)F)c2)cc1
- T/C [6]: 95 % of control
- T/C [7]: 96 % of control
- T/C [8]: 96 % of control

SMILES: C[CH2][Pb]([CH2]C)([CH2]C)[O]S(=O)(=O)c1ccc(C)cc1
- T/C (dose: 1.56 mg/kg/injection, schedule: Q01DX009 (ip), vehicle: saline with Tween-80): 95 % of control
- T/C (dose: 3.13 mg/kg/injection, schedule: Q01DX009 (ip), vehicle: saline with Tween-80): 96 % of control

SMILES: Cc1nc(NN)ccc1[N+](=O)[O-]
- T/C (dose: 100.0 mg/kg/injection, schedule: Q04DX002 (ip), vehicle: Klucel (hydroxypropylcellulose) (HPC)): 96 % of control
- T/C (dose: 200.0 mg/kg/injection, schedule: Q04DX002 (ip), vehicle: Klucel (hydroxypropylcellulose) (HPC)): 90 % of control
- T/C (dose: 400.0 mg/kg/injection, schedule: Q04DX002 (ip), vehicle: Klucel (hydroxypropylcellulose) (HPC)): 96 % of control

SMILES: CSc1nncc(=O)[nH]1.[Hg]
- T/C (dose: 5.0 mg/kg/injection, schedule: Q01DX001 (ip), vehicle: carboxymethylcellulose (CMC)): 91 % of control
- T/C (dose: 10.0 mg/kg/injection, schedule: Q01DX001 (ip), vehicle: carboxymethylcellulose (CMC)): 102 % of control

SMILES: O=C(NCCBr)Nc1ccccc1
- T/C [17]: 97 % of control
- T/C [18]: 108 % of control
- T/C [9]: 108 % of control
- T/C (dose: 80.0 mg/kg/injection, schedule: Q01DX009 (ip), vehicle: Klucel (hydroxypropylcellulose) (HPC)): 103 % of control
- T/C (dose: 115.0 mg/kg/injection, schedule: Q01DX009 (ip), vehicle: Klucel (hydroxypropylcellulose) (HPC)): 114 % of control
- T/C (dose: 170.0 mg/kg/injection, schedule: Q01DX009 (ip), vehicle: Klucel (hydroxypropylcellulose) (HPC)): 95 % of control

SMILES: CCCCCCCCCCCCSCCOC(=O)C1C2CCC(O2)C1C(=O)O (configuration not stated)
- T/C (dose: 12.5 mg/kg/injection, schedule: Q04DX003 (ip), vehicle: Klucel (hydroxypropylcellulose) (HPC)): 96 % of control
- T/C (dose: 25.0 mg/kg/injection, schedule: Q04DX003 (ip), vehicle: Klucel (hydroxypropylcellulose) (HPC)): 100 % of control
- T/C (dose: 50.0 mg/kg/injection, schedule: Q04DX003 (ip), vehicle: Klucel (hydroxypropylcellulose) (HPC)): 90 % of control

SMILES: O=[N+]([O-])c1ccc2nocc2c1
- T/C [6]: 95 % of control
